This note sets out measurements from ChEMBL document CHEMBL5724558, “Image-based profiling of drug vulnerabilities in CRC organoids” (2024).

Common to all, as to assay type: functional, Homo sapiens
What all share (set-up): dose or concentration left out as unconfirmed

Assay [1] concerns Colon cancer organoid. The assay can be described thus: Image-based profiling of donated chemical probes and chemogenomic kinase set in O06 CRC organoid. Image analysis is performed on the sum area metric, and the data were normalized to the DMSO control. After imaging the organoid viability is measured using the OneGloEX Luciferase Assay System. The normalized viability data and sum area are reported.

Assay [2] relates to Colon cancer organoid. Nature of the assay: Image-based profiling of donated chemical probes and chemogenomic kinase set in O09 CRC organoid. Image analysis is performed on the sum area metric, and the data were normalized to the DMSO control. After imaging the organoid viability is measured using the OneGloEX Luciferase Assay System. The normalized viability data and sum area are reported.

Assay [3] relates to Colon cancer organoid. Nature of the assay: Image-based profiling of donated chemical probes and chemogenomic kinase set in O21 CRC organoid. Image analysis is performed on the sum area metric, and the data were normalized to the DMSO control. After imaging the organoid viability is measured using the OneGloEX Luciferase Assay System. The normalized viability data and sum area are reported.

Where “and” joins values, the source holds several entries; their conditions need not be identical. Equal entries are not always repeated. Square brackets hold non-standard residues; d marks the D form. Peptide text beside a SMILES is read from it. Arg(Me) = CNC(=N)NCCC[C@H](N)C(=O)O; d3Pal = N[C@H](Cc1cccnc1)C(=O)O; azaGly = NNC(=O)O

With `CNC(=N)NCCC[C@H](NC(=O)[C@H](CC(C)C)NC(=O)NNC(=O)[C@H](Cc1ccccc1)NC(=O)[C@H](CO)NC(=O)[C@H](CC(N)=O)NC(=O)[C@@H](Cc1cccnc1)NC(=O)[C@H](N)Cc1ccc(O)cc1)C(=O)NCC(N)=O` [KISS1-543] (H-[dY][d3Pal]NSF[azaGly]L[Arg(Me)]G-NH2), the “Cell Viability” value in assay [1] (Replication number 1) was 118.716% and 117.33%; in assay [1] (Replication number 2) it was 90.7753% and 88.3624%; in assay [2] (Replication number 1) it was 107.101% and 81.2318%; in assay [2] (Replication number 2), 83.0393% and 106.024%; in assay [3] (Replication number 1), 119.966% and 118.758%; in assay [3] (Replication number 2), 94.392% and 98.4694%.

Regarding `CC(C)(O)[C@H](F)CN1Cc2cc(NC(=O)c3cnn4cccnc34)c(N3CCOCC3)cc2C1=O`, the “Cell Viability” value was 109.705% and 119.757% in assay [1] (Replication number 1); 130.929% and 135.992% in assay [1] (Replication number 2); 71.2325% and 98.662% in assay [2] (Replication number 1); 94.649% and 96.9469% in assay [2] (Replication number 2); 101.018% and 118.952% in assay [3] (Replication number 1); 110.562% and 109.619% in assay [3] (Replication number 2).

On to `CC[C@@H]1CN(C(=O)NCC(F)(F)F)C[C@@H]1c1cnc2cnc3[nH]ccc3n12` [UPADACITINIB], for which the “Cell Viability” value in assay [1] (Replication number 1) is 103.03% and 85.909%; in assay [1] (Replication number 2) it was 77.8559% and 94.8072%; in assay [2] (Replication number 1), 147.971% and 117.189%; in assay [2] (Replication number 2), 96.4317% and 92.8632%; in assay [3] (Replication number 1), 100.634% and 104.808%; in assay [3] (Replication number 2), 99.9708% and 92.6952%.

For the molecule `O=C(Nc1nc2cccc(-c3ccc(CN4CCS(=O)(=O)CC4)cc3)n2n1)C1CC1` [FILGOTINIB], the “Cell Viability” value was 93.5364% and 106.162% in assay [1] (Replication number 1); 112.473% and 105.09% in assay [1] (Replication number 2); 112.727% and 81.0348% in assay [2] (Replication number 1); 92.6922% and 97.9922% in assay [2] (Replication number 2); 108.054% and 94.216% in assay [3] (Replication number 1); 115.207% and 111.119% in assay [3] (Replication number 2).

Consider `CCn1cc(-c2cccc(C(F)(F)F)c2)c2sc(C(=N)NC3CCS(=O)(=O)CC3)cc2c1=O`, for which the “Cell Viability” value in assay [1] (Replication number 1) was 179.562% and 135.302%; in assay [1] (Replication number 2), 139.17% and 96.3091%; in assay [2] (Replication number 1), 136.882% and 100.386%; in assay [2] (Replication number 2) it was 86.2111% and 86.0944%; in assay [3] (Replication number 1) it was 121.201% and 130.503%; in assay [3] (Replication number 2), 111.866% and 107.936%.

Take `COc1ccc2c(c1)O[C@@H](c1ccc(OC)c(OC)c1)C[C@H]2NC(=O)C1(c2ccc3c(c2)OC(F)(F)O3)CC1` [A-1596586]: the “Cell Viability” value in assay [1] (Replication number 1) is 114.211% and 123.158%; in assay [1] (Replication number 2) it was 130.418% and 120.375%; in assay [2] (Replication number 1), 77.2703% and 96.7863%; in assay [2] (Replication number 2) it was 76.2669% and 106.86%; in assay [3] (Replication number 1), 105.739% and 116.224%; in assay [3] (Replication number 2), 98.6022% and 86.1659%.

With `CC1(C)C(N)=Nc2cc(OCCCN3Cc4ccc(OCCc5cn(CC(=O)N6CCC(CCN7CCCC7)CC6)nn5)cc4C3)c(OCC3CC3)cc21`, the “Cell Viability” value was 159.496% and 131.919% in assay [1] (Replication number 1); 138.652% and 115.905% in assay [1] (Replication number 2); 116.392% and 79.0572% in assay [2] (Replication number 1); 168.88% and 116.313% in assay [2] (Replication number 2); 89.3796% and 92.2926% in assay [3] (Replication number 1); 86.2982% and 98.2697% in assay [3] (Replication number 2).

As to `Cc1sc2c(c1C)C(c1ccc(Cl)cc1)=N[C@@H](CC(=O)NCCCCCCCCNC(=O)COc1cccc3c1C(=O)N(C1CCC(=O)NC1=O)C3=O)c1nnc(C)n1-2` (stereo not given in full), the “Cell Viability” value in assay [1] (Replication number 1) was 4.9545% and 11.7664%; in assay [1] (Replication number 2) it was 6.03% and 10.6824%; in assay [2] (Replication number 1), 79.9563% and 42.1947%; in assay [2] (Replication number 2), 86.5792% and 48.4637%; in assay [3] (Replication number 1) it was 41.9399% and 81.7113%; in assay [3] (Replication number 2), 36.361% and 51.9272%.

As for `Cn1c(C2(NC(=O)c3ccc(NCC4CCCCC4)nc3)CCC2)nc2ccc(/C=C/C(=O)O)cc21` [BI 7656], the “Cell Viability” value in assay [1] (Replication number 1) is 99.3838% and 109.64%; in assay [1] (Replication number 2), 121.504% and 124.591%; in assay [2] (Replication number 1), 151.482% and 117.548%; in assay [2] (Replication number 2), 136.087% and 97.2553%; in assay [3] (Replication number 1), 95.8092% and 94.6419%; in assay [3] (Replication number 2), 106.526% and 92.3751%.

`CC(=O)Nc1ncc(CN2CCC[C@H](Cc3cc(C)nc(C)c3)C2)s1` [JNJ-65355394]: the “Cell Viability” value in assay [1] (Replication number 1) is 89.0088% and 111.578%; in assay [1] (Replication number 2), 103.026% and 113.793%; in assay [2] (Replication number 1), 144.44% and 104.679%; in assay [2] (Replication number 2) it was 146.748% and 114.826%; in assay [3] (Replication number 1), 79.2381% and 103.709%; in assay [3] (Replication number 2), 88.6271% and 113.344%.
